Some test systems named below: MALME-3M melanoma; SW-620 colon; EKVX NSCLC; A498 renal; HCT-116 colon; OVCAR-8 ovarian; U251 CNS; UACC-257 melanoma; HL-60(TB) leukemia; NCI/ADR-RES ovarian.
Holding throughout (assay): NCI tumour cell line growth inhibition, 48 h

SMILES strings stand for the structures. Where “and” joins values, the source holds several entries; their conditions need not be identical. Equal values may be shown once.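 Method: 48-hour compound exposure of cells in 96-well plates, five concentrations, linear interpolation of endpoints. GI50 is the concentration that inhibits growth by half. Definition used: TGI = concentration required for complete inhibition of growth.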

For the molecule `COc1ccc(Nc2c3c4c(cccc4[nH]c2=O)C(=O)c2ccccc2-3)cc1`, the GI50 in the assay on MALME-3M melanoma was 0.0663 µM; in the assay with SW-620 colon, less than 0.0203 µM; with EKVX NSCLC, 0.0552 µM; in the assay on A498 renal it was less than 0.0192 µM; in the assay on HCT-116 colon, less than 0.01 µM; in the assay with OVCAR-8 ovarian it was 0.0367 µM. The GI50 is 0.0434 µM in the assay with U251 CNS, 1.21 µM with UACC-257 melanoma, 0.0188 µM with HL-60(TB) leukemia and 0.0227 µM with NCI/ADR-RES ovarian. Further, the TGI with MALME-3M melanoma is 48.3 µM; with SW-620 colon, more than 100 µM; in the assay on EKVX NSCLC, more than 100 µM; in the assay with HCT-116 colon it was 0.104 µM; with OVCAR-8 ovarian it was more than 100 µM; with U251 CNS, more than 68.9 µM. In addition, the TGI in the assay on UACC-257 melanoma is more than 92.4 µM; with HL-60(TB) leukemia, 0.0393 µM; with NCI/ADR-RES ovarian, 0.0526 µM.
On to `O=C1Nc2cc(Cl)ccc2Oc2cc(Oc3ccccc3)ccc21`, for which the GI50 with MALME-3M melanoma was 10.9 µM; with SW-620 colon it was 2.73 µM; with EKVX NSCLC, 4.36 µM; in the assay on A498 renal it was 1.69 µM; in the assay with HCT-116 colon, 4.23 µM; in the assay with OVCAR-8 ovarian, 8.81 µM. In addition, the GI50 in the assay on U251 CNS is 5.26 µM; in the assay on UACC-257 melanoma, 16 µM; with HL-60(TB) leukemia it was 3.6 µM; with NCI/ADR-RES ovarian, 2.53 µM. Also, the TGI with MALME-3M melanoma was 47.4 µM; in the assay on SW-620 colon, 16.9 µM; with EKVX NSCLC, 37.2 µM; in the assay on A498 renal it was 9.72 µM; with HCT-116 colon, 32 µM; in the assay on OVCAR-8 ovarian it was 78.4 µM. For the same molecule, the TGI with U251 CNS is 23.8 µM; in the assay with UACC-257 melanoma it was more than 100 µM; in the assay on HL-60(TB) leukemia, more than 100 µM; with NCI/ADR-RES ovarian, 9.77 µM.
Consider `O=C1Nc2ccccc2C1(c1ccc(O)c(F)c1)c1ccc(O)c(F)c1`, for which the GI50 in the assay on MALME-3M melanoma was 13.7 µM; in the assay with SW-620 colon, 20.6 µM; with EKVX NSCLC, 4.31 µM; in the assay with A498 renal it was 11.1 µM; with HCT-116 colon, 11.6 µM; in the assay on OVCAR-8 ovarian, 0.333 µM. For the same molecule, the GI50 with U251 CNS was 14.5 µM; with UACC-257 melanoma, 24.6 µM; with HL-60(TB) leukemia it was 15 µM; in the assay on NCI/ADR-RES ovarian, 0.389 µM. Moreover, the TGI was 46.6 µM in the assay on MALME-3M melanoma; 84.3 µM with SW-620 colon; 43.5 µM with EKVX NSCLC; 27.4 µM in the assay with A498 renal; 52.7 µM in the assay with HCT-116 colon; 3.49 µM in the assay on OVCAR-8 ovarian. For the same molecule, the TGI with U251 CNS was 48.6 µM; in the assay on UACC-257 melanoma it was 67.5 µM; in the assay on HL-60(TB) leukemia it was 42.6 µM; in the assay on NCI/ADR-RES ovarian it was more than 100 µM.
In the case of `COc1ccc(-c2cn(-c3ccc(Cl)cc3)c(=S)[nH]2)cc1OC`, the GI50 in the assay with MALME-3M melanoma is 68.4 µM; in the assay on SW-620 colon it was more than 100 µM; in the assay on EKVX NSCLC, 13.2 µM; with A498 renal it was 3.63 µM; with HCT-116 colon, 3.96 µM; in the assay on OVCAR-8 ovarian, 46.7 µM. Besides, the GI50 is 12.3 µM in the assay on U251 CNS, more than 100 µM in the assay with UACC-257 melanoma, 3.34 µM with HL-60(TB) leukemia and 5.3 µM with NCI/ADR-RES ovarian. The TGI was more than 100 µM with MALME-3M melanoma; more than 100 µM in the assay with SW-620 colon; more than 100 µM with EKVX NSCLC; 53.9 µM in the assay with A498 renal; more than 100 µM in the assay on HCT-116 colon; more than 100 µM with OVCAR-8 ovarian. The TGI with U251 CNS was more than 100 µM; in the assay on UACC-257 melanoma it was more than 100 µM; in the assay with HL-60(TB) leukemia, 9.32 µM; with NCI/ADR-RES ovarian, more than 100 µM.
For `Fc1ccc(-c2ncn(C3CCNCC3)c2-c2ccnc(Oc3ccccc3)n2)cc1`, the GI50 was 18.4 µM in the assay on MALME-3M melanoma; more than 25 µM with SW-620 colon; more than 25 µM in the assay with EKVX NSCLC; more than 16.1 µM in the assay with A498 renal; 14.8 µM with HCT-116 colon; more than 25 µM in the assay on OVCAR-8 ovarian. Besides, the GI50 in the assay with U251 CNS was 15.2 µM; in the assay on UACC-257 melanoma, 12.5 µM; in the assay with HL-60(TB) leukemia, more than 16.6 µM; with NCI/ADR-RES ovarian, more than 25 µM. The TGI in the assay with MALME-3M melanoma, in the assay on SW-620 colon, with EKVX NSCLC, in the assay with A498 renal, in the assay with HCT-116 colon and with OVCAR-8 ovarian was more than 25 µM in each case. Also, the TGI in the assay on U251 CNS, in the assay on UACC-257 melanoma, in the assay on HL-60(TB) leukemia and with NCI/ADR-RES ovarian was more than 25 µM each time.
On to `O=C(CSc1nc2ccc([N+](=O)[O-])cc2[nH]1)Nc1cccc(Cl)c1`, for which the GI50 was 1.87 µM in the assay with MALME-3M melanoma; 3.38 µM in the assay with SW-620 colon; 2.27 µM in the assay on EKVX NSCLC; 1.43 µM in the assay on A498 renal; 2.81 µM in the assay on HCT-116 colon; 3.02 µM in the assay on OVCAR-8 ovarian. Moreover, the GI50 with U251 CNS was 2.6 µM; in the assay with UACC-257 melanoma, 1.57 µM; with HL-60(TB) leukemia it was 3 µM; with NCI/ADR-RES ovarian, 2.41 µM. Also, the TGI in the assay on MALME-3M melanoma was 8.17 µM; in the assay on SW-620 colon it was 19.8 µM; in the assay on EKVX NSCLC it was 12.6 µM; in the assay on A498 renal, 4.16 µM; in the assay with HCT-116 colon, 11.7 µM; with OVCAR-8 ovarian, more than 39.1 µM. In addition, the TGI was 13.1 µM in the assay on U251 CNS, 6.68 µM in the assay on UACC-257 melanoma, 12.2 µM in the assay with HL-60(TB) leukemia and 9.13 µM with NCI/ADR-RES ovarian.
Regarding `COc1ccc2c(CC(=O)O)cc(=O)oc2c1`, the TGI with MALME-3M melanoma, in the assay with SW-620 colon, in the assay on EKVX NSCLC, with A498 renal, in the assay on HCT-116 colon and with OVCAR-8 ovarian was more than 100 µM throughout. Moreover, the TGI with U251 CNS, with UACC-257 melanoma, with HL-60(TB) leukemia and in the assay with NCI/ADR-RES ovarian was more than 100 µM throughout.
Take `CS(=O)(=O)N1CCN(Cc2cc3nc(-c4cccc5[nH]ncc45)nc(N4CCOCC4)c3s2)CC1`: the GI50 in the assay with MALME-3M melanoma was 0.311 µM and 0.128 µM; with SW-620 colon it was 1.29 µM and 0.484 µM; with EKVX NSCLC, 0.445 µM and 0.577 µM; with A498 renal, 0.0618 µM and 0.0581 µM; in the assay on HCT-116 colon, 1.72 µM and 0.494 µM; in the assay on OVCAR-8 ovarian it was 0.789 µM and 0.594 µM. The GI50 was 1.05 µM and 0.684 µM in the assay with U251 CNS; 0.184 µM and 0.162 µM in the assay on UACC-257 melanoma; 0.121 µM and 0.052 µM in the assay with HL-60(TB) leukemia; 1.76 µM and 1.44 µM in the assay with NCI/ADR-RES ovarian. For the same molecule, the TGI was more than 100 µM with SW-620 colon; more than 100 µM with EKVX NSCLC; 0.433 µM and 0.389 µM in the assay on A498 renal; more than 100 µM with HCT-116 colon; more than 100 µM with OVCAR-8 ovarian; more than 100 µM with U251 CNS. Besides, the TGI was 2.77 µM and > 2.32 µM with UACC-257 melanoma; more than 100 µM in the assay with HL-60(TB) leukemia; more than 100 µM in the assay on NCI/ADR-RES ovarian.

Values taken from PubChem BioAssay (NCI).
